Measured values published in patent publication US7973147B2, “K04-0144 substance and a process for production thereof” (The Kitasato Institute, priority 2006, dated 2011).
Values after ≈ are worked out from the molar mass of the structure shown. Read-outs that look alike come from different tables or passages of the source.

Assays:
[1] = test system: MRSA (Clinical isolate, the Kitasato Hospital, Japan); experiment: Enhancing action of K04-0144D substance on antibiotic activities, broth microdilution method; assay type: cell-based, methicillin-resistant Staphylococcus aureus; conditions: for MIC: Staphylococcus aureus, MRSA
MRSA 92-1191 = experiment: MIC, agar plate dilution method; assay type: cell-based, methicillin-resistant Staphylococcus aureus; conditions: Staphylococcus aureus; MRSA 92-1191; 37° C., 20 hours; read-out: MIC
Method: (§1) Assay of minimum inhibitory concentration (MIC) was performed according to the agar plate dilution method (Method of Japan Society of Chemotherapy, CHEMOTHERAPY 29, 76-79, 1981).
(§2) Test organisms used were 27 types of microorganisms including clinical isolates of methicillin-resistant Staphylococcus aureus. Each test organism was cultured in Mueller-Hinton broth (2.1% w/v) (DIFCO) at 37° C. for 20 hours, and the cultured cells were suspended to about 10^6 cell counts/ml in the same medium, then was used as the microbial suspension for inoculation. The prepared microbial suspension was smeared by using the microplanter on MHA medium (Mueller-Hinton broth 2.1% (w/v) and agar 1.5%) containing K04-0144A substance, K04-0144B substance or K04-0144C substance, each of which was subjected to two-fold stepwise dilution from 128 μg/ml. After culturing at 37° C. for 20 hours, MIC was determined by macroscopically confirming the growth of microorganisms. Vancomycin, arbekacin and linezolid were used as a comparative control.

MRSA 70 = experiment: MIC, agar plate dilution method; assay type: cell-based, methicillin-resistant Staphylococcus aureus; conditions: Staphylococcus aureus; MRSA 70; 37° C., 20 hours; read-out: MIC
Method: as §1, §2

MRSA N315 IR94 HR-1 = experiment: MIC, agar plate dilution method; assay type: cell-based, methicillin-resistant Staphylococcus aureus; conditions: Staphylococcus aureus, 20 h
Method: as §1, §2

K. pneumoniae NCTN9632 = experiment: MIC, agar plate dilution method; assay type: cell-based; conditions: Klebsiella pneumoniae; K. pneumoniae NCTN9632; 37° C., 20 hours; read-out: MIC
Method: as §1, §2

M. luteus ATCC9341 = experiment: MIC, agar plate dilution method; assay type: cell-based; conditions: Micrococcus luteus; M. luteus ATCC9341; 37° C., 20 hours; read-out: MIC
Method: as §1, §2

S. marcescens IFO12648 = experiment: MIC, agar plate dilution method; assay type: cell-based; conditions: Serratia marcescens; S. marcescens IFO12648; 37° C., 20 hours; read-out: MIC
Method: as §1, §2

P. mirabilis IFO3849 = experiment: MIC, agar plate dilution method; assay type: cell-based; conditions: Proteus mirabilis; P. mirabilis IFO3849; 37° C., 20 hours; read-out: MIC
Method: as §1, §2

[2] = test system: E. facecalis NTCT12201(VanA); experiment: MIC, agar plate dilution method; assay type: cell-based; conditions: E. facecalis NTCT12201(VanA); 37° C., 20 hours; read-out: MIC
Method: as §1, §2

E. cloacae IFO13535 = experiment: MIC, agar plate dilution method; assay type: cell-based; conditions: Enterobacter cloacae; E. cloacae IFO13535; 37° C., 20 hours; read-out: MIC
Method: as §1, §2

P. vulgaris OX-19 = experiment: MIC, agar plate dilution method; assay type: cell-based; conditions: Proteus vulgaris, OX19; P. vulgaris OX-19; 37° C., 20 hours; read-out: MIC
Method: as §1, §2

E. faecalis ATCC21212 = experiment: MIC, agar plate dilution method; assay type: cell-based; conditions: Enterococcus faecalis; E. faecalis ATCC21212; 37° C., 20 hours; read-out: MIC
Method: as §1, §2

S. aureus ISP447 = experiment: MIC, agar plate dilution method; assay type: cell-based; conditions: Staphylococcus aureus; S. aureus ISP447; 37° C., 20 hours; read-out: MIC
Method: as §1, §2

P. aeruginosa E-2 = experiment: MIC, agar plate dilution method; assay type: cell-based; conditions: Pseudomonas aeruginosa, E2; P. aeruginosa E-2; 37° C., 20 hours; read-out: MIC
Method: as §1, §2

E. aerogenes NCTC10006 = experiment: MIC, agar plate dilution method; assay type: cell-based; conditions: Klebsiella aerogenes; E. aerogenes NCTC10006; 37° C., 20 hours; read-out: MIC
Method: as §1, §2

S. epidermidis IFO12648 = experiment: MIC, agar plate dilution method; assay type: cell-based; conditions: Staphylococcus epidermidis; S. epidermidis IFO12648; 37° C., 20 hours; read-out: MIC
Method: as §1, §2

S. aureus ISP217 = experiment: MIC, agar plate dilution method; assay type: cell-based; conditions: Staphylococcus aureus; S. aureus ISP217; 37° C., 20 hours; read-out: MIC
Method: as §1, §2

S. aureus Smith = experiment: MIC, agar plate dilution method; assay type: cell-based; conditions: Staphylococcus aureus; S. aureus Smith; 37° C., 20 hours; read-out: MIC
Method: as §1, §2

C. freundii ATCC8090 = experiment: MIC, agar plate dilution method; assay type: cell-based; conditions: Citrobacter freundii; C. freundii ATCC8090; 37° C., 20 hours; read-out: MIC
Method: as §1, §2

E. coli NIHJ JC-2 = experiment: MIC, agar plate dilution method; assay type: cell-based; conditions: Escherichia coli, NIHJJC2; E. coli NIHJ JC-2; 37° C., 20 hours; read-out: MIC
Method: as §1, §2

P. aeruginosa 46001 = experiment: MIC, agar plate dilution method; assay type: cell-based; conditions: Pseudomonas aeruginosa; P. aeruginosa 46001; 37° C., 20 hours; read-out: MIC
Method: as §1, §2

S. aureus FDA209P = experiment: MIC, agar plate dilution method; assay type: cell-based; conditions: Staphylococcus aureus; S. aureus FDA209P; 37° C., 20 hours; read-out: MIC
Method: as §1, §2

M. morganii IID Kono = experiment: MIC, agar plate dilution method; assay type: cell-based; conditions: Morganella morganii; M. morganii IID Kono; 37° C., 20 hours; read-out: MIC
Method: as §1, §2

A. calcoaceticus IFO2552 = experiment: MIC, agar plate dilution method; assay type: cell-based; conditions: Acinetobacter calcoaceticus; A. calcoaceticus IFO2552; 37° C., 20 hours; read-out: MIC
Method: as §1, §2

S. aureus 8325(pMS97) = experiment: MIC, agar plate dilution method; assay type: cell-based; conditions: Staphylococcus aureus, 20 h
Method: as §1, §2

S. aureus 8325(pEP2104) = experiment: MIC, agar plate dilution method; assay type: cell-based; conditions: Staphylococcus aureus, 20 h
Method: as §1, §2

[3] = test system: E. faecium NTCT12203(VanA); experiment: MIC, agar plate dilution method; assay type: cell-based; conditions: Enterococcus faecium; E. faecium NTCT12203(VanA); 37° C., 20 hours; read-out: MIC
Method: as §1, §2

MRSA N315 IR94 = experiment: MIC, agar plate dilution method; assay type: cell-based, methicillin-resistant Staphylococcus aureus; conditions: Staphylococcus aureus, 20 h
Method: as §1, §2

Row | Structure (SMILES) | MIC (MRSA 92-1191) | MIC (MRSA 70) | MIC (K. pneumoniae NCTN9632) | MIC (M. luteus ATCC9341) | MIC (S. marcescens IFO12648) | MIC (P. mirabilis IFO3849) | MIC [2] | MIC (E. cloacae IFO13535) | MIC (P. vulgaris OX-19) | MIC (E. faecalis ATCC21212) | MIC (S. aureus ISP447) | MIC (P. aeruginosa E-2) | MIC (E. aerogenes NCTC10006) | MIC (S. epidermidis IFO12648) | MIC (S. aureus ISP217) | MIC (S. aureus Smith) | MIC (C. freundii ATCC8090) | MIC (E. coli NIHJ JC-2) | MIC (P. aeruginosa 46001) | MIC (S. aureus FDA209P) | further results
1 | [H]/N=C(/N)N[C@H]1[C@H](O)[C@@H](O)[C@H](O[C@@H]2O[C@@H](C)[C@](O)(C=O)[C@H]2O[C@@H]2O[C@@H](CO)[C@H](O)[C@@H](O)[C@@H]2NC)[C@@H](N/C(N)=N\[H])[C@@H]1O [Streptomycin, streptomycin] | – | – | – | – | – | – | – | – | – | – | – | – | – | – | – | – | – | – | – | – | enhancing action of K04-0144D substance on the antibiotic's activity ([1]; K04-0144D substance 16 μg/ml): no enhancing action; Ratio (−/+K04-0144D) ([1]; MIC alone / MIC with K04-0144D substance 16 μg/ml): 2; MIC ([1]; antibiotic alone, without K04-0144D substance, read-out: Minimum Inhibitory Concentration (−)): 2 µg/mL; MIC ([1]; combined use with K04-0144D substance 16 μg/ml, read-out: Minimum Inhibitory Concentration (+)): 1 µg/mL
2 | NCC[C@H](O)C(=O)N[C@@H]1C[C@H](N)[C@@H](O[C@H]2O[C@H](CN)CC[C@H]2N)[C@H](O)[C@H]1O[C@H]1O[C@H](CO)[C@@H](O)[C@H](N)[C@H]1O [arbekacin, reference compound] | 0.5 µg/mL (≈ 0.905 µM) | 0.5 µg/mL (≈ 0.905 µM) | ≤ 0.25 µg/mL | ≤ 0.25 µg/mL | 1 µg/mL (≈ 1.81 µM) | 2 µg/mL (≈ 3.62 µM) | > 32 µg/mL | 0.5 µg/mL (≈ 0.905 µM) | 2 µg/mL (≈ 3.62 µM) | > 32 µg/mL | ≤ 0.25 µg/mL | 4 µg/mL (≈ 7.24 µM) | ≤ 0.25 µg/mL | ≤ 0.25 µg/mL | ≤ 0.25 µg/mL | ≤ 0.25 µg/mL | 0.5 µg/mL (≈ 0.905 µM) | > 32 µg/mL | 1 µg/mL (≈ 1.81 µM) | ≤ 0.25 µg/mL | MIC (MRSA N315 IR94 HR-1): 1 µg/mL (≈ 1.81 µM); MIC (M. morganii IID Kono): 0.5 µg/mL (≈ 0.905 µM); MIC (A. calcoaceticus IFO2552): ≤ 0.25 µg/mL; MIC (S. aureus 8325(pMS97)): ≤ 0.25 µg/mL; MIC (S. aureus 8325(pEP2104)): ≤ 0.25 µg/mL; MIC [3]: 8 µg/mL (≈ 14.5 µM)
3 | CC(=O)NC[C@H]1CN(c2ccc(N3CCOCC3)c(F)c2)C(=O)O1 [linezolid, reference compound] | 2 µg/mL (≈ 5.93 µM) | 0.5 µg/mL (≈ 1.48 µM) | > 32 µg/mL | 2 µg/mL (≈ 5.93 µM) | > 32 µg/mL | > 32 µg/mL | 2 µg/mL (≈ 5.93 µM) | > 32 µg/mL | 8 µg/mL (≈ 23.7 µM) | 2 µg/mL (≈ 5.93 µM) | 2 µg/mL (≈ 5.93 µM) | > 32 µg/mL | > 32 µg/mL | 2 µg/mL (≈ 5.93 µM) | 2 µg/mL (≈ 5.93 µM) | 2 µg/mL (≈ 5.93 µM) | > 32 µg/mL | > 32 µg/mL | > 32 µg/mL | 1 µg/mL (≈ 2.96 µM) | MIC (MRSA N315 IR94): 1 µg/mL (≈ 2.96 µM); MIC (M. morganii IID Kono): > 32 µg/mL; MIC (A. calcoaceticus IFO2552): > 32 µg/mL; MIC [3]: 2 µg/mL (≈ 5.93 µM)
